Earlier results, collected in US20100068291A1, “Oral Medicament Based on a Proton Pump Inhibitor” (FLAMEL TECHNOLOGIES, S.A., priority 2005, published 2010).

Conditions: in vivo

In the case of `COc1ccc2[nH]c([S+]([O-])Cc3ncc(C)c(OC)c3C)nc2c1` (stereo not shown) [omeprazole], the plasma half-life is listed as 0.5-1 H.
